Blank lines part the entries; values can stand above or below the molecule they belong to.
Experiment: solvent given as SMILES
[1] = in c1cc(-n2c3ccccc3c3ccccc32)cc(-n2c3ccccc3c3ccccc32)c1

emission maximum (in ClCCl): 454 nm
Structure (SMILES): N#Cc1ccc(N(c2ccccc2)c2ccc3ccc4c(N(c5ccccc5)c5ccc(C#N)cc5)ccc5ccc2c3c54)cc1

emission maximum (in CC1CCCCC1): 468 nm
emission maximum (in CC#N): 476 nm
Structure (SMILES): C(=C\c1c2ccccc2cc2ccccc12)/c1ccccc1

emission maximum (in O): 338.98 nm
Structure (SMILES): Nc1nc2c(ncn2[C@H]2C[C@H](O)[C@@H](CO)O2)c(=O)[nH]1

emission maximum (in C1COCCO1): 489 nm
Structure (SMILES): COc1ccc(C2=N/C(=C\c3ccc(C#N)cc3)C(=O)O2)cc1OC

emission maximum (in C1CCOC1): 662 nm
emission maximum (in ClCCl): 658 nm
Structure (SMILES): F[B-]1(F)n2c(c3ccccc3c2-c2ccccc2)C=C2c3ccccc3C(c3ccccc3)=[N+]21

emission maximum (in ClCCl): 417 nm
Structure (SMILES): c1ccc(-c2c3ccccc3c(-c3ccc(-c4cccnc4)cc3)c3ccccc23)cc1

emission maximum (in O): 572 nm
Structure (SMILES): CC1(C)C2=C3C=C4C5=[N+](CCC4OC3CCN2c2ccc(CC(=O)NCCCCCCO)cc21)c1ccc(S(=O)(=O)[O-])cc1C5(C)C (stereo not drawn)

emission maximum (in C1CCCCC1): 399.14 nm
emission maximum (in CC#N): 404.15 nm
emission maximum (in ClCCl): 405.52 nm
Structure (SMILES): c1ccc2c(-c3ccc4sc5ccccc5c4c3)c3ccccc3cc2c1

emission maximum (in ClCCl): 484 nm
Structure (SMILES): Cc1cc(C)c(B2c3cc(C)ccc3N3c4ccc(C)cc4B(c4c(C)cc(C)cc4C)c4cc(C)cc2c43)c(C)c1

emission maximum (in CS(C)=O): 420 nm
Structure (SMILES): Brc1ccc(-c2nc3sc4ccccc4c3s2)cc1

emission maximum (in ClC(Cl)Cl): 615 nm
Structure (SMILES): CCn1c2ccccc2sc2c(C#N)c3[nH]c4ccccc4sc3c(C#N)c21

emission maximum (in CCCCCC): 471 nm
Structure (SMILES): CCc1c(C(=O)OC)c(C(=O)OC)c2ccc(-c3ccccc3)nn12

emission maximum (in O): 485 nm
Structure (SMILES): O=S(=O)([O-])c1ccc2c([O-])cc(S(=O)(=O)[O-])cc2c1

emission maximum (in CCO): 460 nm
Structure (SMILES): COc1ccc(C(=O)COc2c(C)c(=O)n3c(=O)c(C)c(COC(=O)c4ccccc4Cl)n23)cc1

emission maximum (in ClCCl): 599 nm
Structure (SMILES): CN(C)c1ccc(C2=CC3=C(c4ccc(C#N)cc4)[C@H]4c5ccccc5[C@]3(S2)c2ccccc24)cc1

emission maximum (in ClC(Cl)Cl): 383 nm
Structure (SMILES): CC[Si](CC)(CC)c1cc2ccc3cccc4ccc(c1C(=O)NC(C)(C)C)c2c34

emission maximum (in C1CCCCC1): 430 nm
emission maximum (in C1CCOC1): 434 nm
emission maximum (in C1COCCO1): 432 nm
emission maximum (in CC#N): 398 nm
emission maximum (in CCOC(C)=O): 434 nm
emission maximum (in CN(C)C=O): 386 nm
emission maximum (in CO): 390 nm
emission maximum (in ClC(Cl)Cl): 450 nm
Structure (SMILES): O=C(O)c1ccccc1Nc1ccccc1

emission maximum (in ClCCl): 489 nm
Structure (SMILES): Cc1cc(-c2ccc(C(C)(C)C)cc2)c2nsnc2c1-c1ccc(C(C)(C)C)cc1

emission maximum (in CN(C)C=O): 415 nm
Structure (SMILES): C(=C\c1ccc(-c2nnc(-c3ccccc3)o2)cc1)/c1ccc(-c2nnc(-c3ccccc3)o2)cc1

Further lines, the molecule ahead of its results:

Structure (SMILES): CCCCCCCCC1(CCCCCCCC)c2cc(C#CC#Cc3ccc(N(c4ccccc4)c4ccccc4)cc3)ccc2-c2ccc(C=O)cc21
emission maximum (in C1CCOC1): 498 nm
emission maximum (in C1COCCO1): 448 nm
emission maximum (in CC#N): 525 nm
emission maximum (in CC(C)=O): 541 nm
emission maximum (in CCCCCC): 422 nm
emission maximum (in CCOC(C)=O): 500 nm
emission maximum (in CN(C)C=O): 523 nm
emission maximum (in CS(C)=O): 540 nm
emission maximum (in Cc1ccccc1): 442 nm
emission maximum (in ClC(Cl)Cl): 500 nm
emission maximum (in ClCCl): 520 nm

Structure (SMILES): F[B-]1(F)Oc2c(ccc3c4c(ccc23)C=[N+](c2ccccc2)[B-](F)(F)O4)C=[N+]1c1ccccc1
emission maximum (in Cc1ccccc1): 538 nm
emission maximum (in ClCCl): 533 nm

Structure (SMILES): O=S(=O)(c1ccc(N2c3ccccc3Oc3ccccc32)cc1)c1ccc(N2c3ccccc3Oc3ccccc32)cc1
emission maximum (in C1COCCO1): 524 nm
emission maximum (in CC(C)=O): 577 nm
emission maximum (in Cc1ccccc1): 507 nm
emission maximum (in ClC(Cl)Cl): 539 nm
emission maximum [1]: 505 nm

Structure (SMILES): CCC1(CC)c2ccccc2-c2ccc(C#Cc3cc(C#Cc4ccc5c(c4)C(CC)(CC)c4ccccc4-5)c4ccc5c(C#Cc6ccc7c(c6)C(CC)(CC)c6ccccc6-7)cc(C#Cc6ccc7c(c6)C(CC)(CC)c6ccccc6-7)c6ccc3c4c65)cc21
emission maximum (in Cc1ccccc1): 549 nm

Structure (SMILES): CCCCN(CCCC)c1ccc(C#Cc2cc(C#Cc3ccc(N(CCCC)CCCC)cc3)c(C#Cc3ccc(C#N)cc3)cc2C#Cc2ccc(C#N)cc2)cc1
emission maximum (in ClCCl): 557 nm
emission maximum (in c1ccccc1): 512 nm

Structure (SMILES): OC1(c2ccc(-c3cccs3)s2)CCC1
emission maximum (in C1CCOC1): 470 nm
emission maximum (in CC#N): 460 nm
emission maximum (in CCCCCC): 465 nm
emission maximum (in CCO): 415 nm
emission maximum (in OCCOCCO): 465 nm
emission maximum (in c1ccncc1): 468 nm

Structure (SMILES): CN1C(=CC2=C([O-])C(=Cc3oc4ccccc4[n+]3C)C2=C(C#N)C#N)C(C)(C)c2ccccc21
emission maximum (in ClC(Cl)Cl): 673 nm

Structure (SMILES): CC(C)(C)c1ccc2c(c1)c1cc(C(C)(C)C)ccc1n2-c1ccc(-c2nc(-c3ccccc3)nc(-c3ccccc3)n2)c2c1c1ccccc1n2-c1ccccc1
emission maximum (in C1CCOC1): 450 nm
emission maximum (in Cc1ccccc1): 417 nm
emission maximum (in ClCCl): 474.77 nm

Structure (SMILES): CC1(C)c2ccccc2N(c2cc3c4ccccc4n4c5ccccc5c(c2)c34)c2ccccc21
emission maximum (in C1CCCCC1): 416.92 nm
emission maximum (in C1CCOC1): 470.91 nm
emission maximum (in Cc1ccccc1): 439 nm

Structure (SMILES): CC(C)(C)NS(=O)(=O)c1ccc2c(c1)C(=O)/C(=C1\Sc3ccc(S(=O)(=O)NC(C)(C)C)cc3C1=O)S2
emission maximum (in C1COCCO1): 589 nm
emission maximum (in CN(C)C=O): 604 nm
emission maximum (in CS(C)=O): 618 nm

Structure (SMILES): N#Cc1c(-n2c3ccccc3c3ccccc32)nc(-n2c3ccccc3c3ccccc32)c(C#N)c1-c1ccccc1
emission maximum (in c1cc(-c2cccc(-n3c4ccccc4c4ccccc43)c2)cc(-n2c3ccccc3c3ccccc32)c1): 475 nm

Structure (SMILES): CC(C)(C)c1ccc(-c2nc3c4ccc(-c5c6ccccc6cc6ccccc56)cc4c4cc(-c5c6ccccc6cc6ccccc56)ccc4c3n2-c2ccc(C(C)(C)C)cc2)cc1
emission maximum (in C1CCOC1): 428 nm
emission maximum (in C1COCCO1): 429 nm
emission maximum (in CC#N): 455 nm
emission maximum (in CCCCCC): 419 nm
emission maximum (in CCCCOCCCC): 424 nm
emission maximum (in CCN(CC)CC): 421 nm
emission maximum (in CCOC(C)=O): 429 nm
emission maximum (in CCOCC): 424 nm
emission maximum (in CN(C)C=O): 451 nm
emission maximum (in Cc1ccccc1): 428 nm
emission maximum (in ClC=C(Cl)Cl): 429 nm
emission maximum (in ClCCl): 442 nm

Structure (SMILES): CC1(C)Nc2cc3nc4cc(Cl)c(Cl)cc4nc3cc2N1
emission maximum (in CCO): 506 nm

Structure (SMILES): COc1cc2oc(=O)c3c4ccc(C(=O)c5ccccc5)cc4c4ccc5cccc6c(c1)c2c3c4c56
emission maximum (in C1CCOC1): 443 nm

Structure (SMILES): c1ccc(N(c2ccccc2)c2ccc(-c3ccc4c(c3)C3(c5cc(-c6ccc(N(c7ccccc7)c7ccccc7)cc6)ccc5-4)c4ccccc4N(c4ccccc4)c4ccccc43)cc2)cc1
emission maximum (in ClCCl): 451 nm
emission maximum [1]: 432 nm

Structure (SMILES): CCNc1ccc(NCC)c2c1C(=O)c1ccccc1C2=O
emission maximum (in C1CCCCC1): 670 nm
emission maximum (in C1COCCO1): 684 nm
emission maximum (in CC(C)=O): 671 nm
emission maximum (in CCCCCCCCCCO): 672 nm
emission maximum (in CCCCCCCO): 666 nm
emission maximum (in CCCCCCO): 663 nm
emission maximum (in CCCCO): 670 nm
emission maximum (in CCO): 672 nm
emission maximum (in CN(C)C=O): 680 nm
emission maximum (in CO): 669 nm
emission maximum (in CS(C)=O): 672 nm
emission maximum (in ClC(Cl)(Cl)Cl): 679 nm
emission maximum (in c1ccccc1): 670 nm

Structure (SMILES): Cc1ccc(-c2cc(-c3ccccc3)c(C#N)c(=S)[nH]2)cc1
emission maximum (in C1CCCCC1): 504 nm
emission maximum (in C1COCCO1): 506 nm
emission maximum (in CC#N): 488 nm
emission maximum (in CCCCO): 503 nm
emission maximum (in CCCO): 490 nm
emission maximum (in CCO): 462 nm
emission maximum (in CCOC(C)=O): 522 nm
emission maximum (in CCOCC): 524 nm
emission maximum (in CN(C)C=O): 502 nm
emission maximum (in ClC(Cl)(Cl)Cl): 508 nm

Structure (SMILES): CC(C)(C(=O)c1ccc(N2c3ccccc3C(C)(C)c3ccccc32)cc1)C(=O)c1ccc(N2c3ccccc3C(C)(C)c3ccccc32)cc1
emission maximum (in Cc1ccccc1): 506 nm
emission maximum (in c1ccc2c(c1)c1ccccc1n2-c1ccc(-c2ccc(-n3c4ccccc4c4ccccc43)cc2)cc1): 495.97 nm

Structure (SMILES): CC(C)c1cccc(C(C)C)c1N1C(=O)c2ccc3c(-c4ccc(C(=O)O)cc4)c4c5ccc6c7c(ccc(c(-c8ccc(C(=O)O)cc8)c4c4ccc(c2c34)C1=O)c75)C(=O)N(c1c(C(C)C)cccc1C(C)C)C6=O
emission maximum (in ClCCl): 682 nm

Structure (SMILES): COC(=O)c1ccc(/C=C2\C=C(c3ccccc3)NC2=O)cc1
emission maximum (in C1COCCO1): 544 nm

Structure (SMILES): Fc1c(-n2c3ccccc3c3ccccc32)c(F)c(-n2c3ccccc3c3ccccc32)c(-c2nnc(-c3ccccc3)o2)c1-n1c2ccccc2c2ccccc21
emission maximum (in Cc1ccccc1): 490 nm

Structure (SMILES): COc1ccc(C2=C3C(/C=C/c4cc(OC)c(OC)c(OC)c4)=C(C=O)C(C)=[N+]3[B-](F)(F)n3c(C)c(C=O)c(C=Cc4cc(OC)c(OC)c(OC)c4)c32)cc1
emission maximum (in ClCCl): 673 nm

Structure (SMILES): CCN(CC)c1ccc2c(c1)oc(=O)c1c(=O)oc3cc(C#Cc4ccc(C#N)cc4)ccc3c12
emission maximum (in CS(C)=O): 625 nm
emission maximum (in ClCCl): 572 nm

Structure (SMILES): S=P1(c2ccccc2)C(c2ccccc2)=Cc2cc3ccccc3cc21 (stereo not drawn)
emission maximum (in ClCCl): 425 nm

Structure (SMILES): F[B-]1(F)n2cccc2C(c2ccc(-c3c4ccccc4c(-c4ccccc4)c4ccccc34)cc2)=C2C=CC=[N+]21
emission maximum (in CC#N): 516 nm
emission maximum (in CCCCCC): 517 nm
emission maximum (in CCO): 516 nm
emission maximum (in CN(C)C=O): 520 nm
emission maximum (in Cc1ccccc1): 524 nm
emission maximum (in ClCCl): 518 nm

Structure (SMILES): Clc1ncc(-c2c3ccccc3c(-c3cnc(Cl)nc3)c3ccccc23)cn1
emission maximum (in CCO): 428 nm
emission maximum (in ClCCl): 421 nm

Structure (SMILES): c1ccc(-p2c(-c3cccs3)cc3ccccc32)cc1 (stereo not drawn)
emission maximum (in C1CCOC1): 417 nm

Structure (SMILES): COc1ccc(C2=N/C(=C\c3ccc(C#N)cc3)C(=O)N2)cc1OC
emission maximum (in C1COCCO1): 482 nm

Structure (SMILES): F[B-]1(F)OC(c2ccccc2)=Cc2cc3[n+](c[n+]21)[B-](F)(F)OC(c1ccccc1)=C3
emission maximum (in ClCCl): 490 nm

Structure (SMILES): CC(C)(C)c1ccc2c(c1)c1cc(C(C)(C)C)ccc1n2-c1ccc(C#Cc2ccc(C=C(C#N)C#N)cc2)cc1
emission maximum (in CC#N): 490 nm
emission maximum (in CCCCC): 448 nm
emission maximum (in Cc1ccccc1): 554 nm
emission maximum (in ClCCl): 534 nm

Structure (SMILES): Cc1ccc2c(c1)C(C)(C)c1cc(C)ccc1N2c1ccc2c(c1)C(C)(C)c1cc(N3c4ccc(C)cc4C(C)(C)c4cc(C)ccc43)ccc1S2(=O)=O
emission maximum (in Cc1ccccc1): 470.07 nm
emission maximum (in ClCCl): 538 nm
